Assay results taken from paper PMC7522982, “PKIS deep dive yields a chemical starting point for dark kinases and a cell active BRSK2 inhibitor” (Scientific Reports, 2020).
“And” between values parts separate entries of the source, which are not always exact repeats. Equal values may be shown once. Read-outs that look alike come from different tables or passages of the source.

Columns and labels:
[1] = biological target: T1, NLuc-BRSK2 in HEK293 cells (Homo sapiens, UniProt Q8IWQ3); assay: BRSK2 NanoBRET cellular target engagement assay; format: cell-based; conditions: HEK293 cells transiently expressing NLuc-BRSK2, Tracer K5 1 μM, N = 3
T1 construct: host or cells: HEK293
T1 sequence (Q8IWQ3 1-736): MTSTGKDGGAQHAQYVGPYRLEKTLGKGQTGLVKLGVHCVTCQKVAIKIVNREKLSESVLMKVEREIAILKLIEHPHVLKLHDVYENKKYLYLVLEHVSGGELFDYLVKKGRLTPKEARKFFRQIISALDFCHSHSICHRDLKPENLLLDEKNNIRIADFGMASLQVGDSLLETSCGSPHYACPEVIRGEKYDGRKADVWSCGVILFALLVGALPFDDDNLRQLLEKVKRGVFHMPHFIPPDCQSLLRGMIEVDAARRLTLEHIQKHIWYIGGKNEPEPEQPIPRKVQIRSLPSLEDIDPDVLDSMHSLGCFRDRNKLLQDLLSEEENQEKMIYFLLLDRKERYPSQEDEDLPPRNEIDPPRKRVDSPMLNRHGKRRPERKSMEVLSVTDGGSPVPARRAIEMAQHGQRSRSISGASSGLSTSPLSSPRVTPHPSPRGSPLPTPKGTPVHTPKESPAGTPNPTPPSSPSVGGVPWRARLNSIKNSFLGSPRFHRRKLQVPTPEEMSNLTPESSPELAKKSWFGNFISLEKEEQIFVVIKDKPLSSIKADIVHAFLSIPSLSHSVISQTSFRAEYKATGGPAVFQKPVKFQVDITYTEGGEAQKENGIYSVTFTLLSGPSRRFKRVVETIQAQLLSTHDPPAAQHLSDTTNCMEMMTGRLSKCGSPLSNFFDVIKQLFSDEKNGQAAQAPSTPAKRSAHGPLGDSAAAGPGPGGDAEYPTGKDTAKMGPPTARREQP
Experimental: Our interest in illuminating BRSK2 biology motivated further investigation of the cellular target engagement of BRSK2 by GW296115 using our NanoBRET assay. BRSK2 kinase was fused to 19-kDa luciferase (NLuc) at its N-terminus (NLuc–BRSK2) which was transiently expressed in HEK293 cells, and then incubated with a cell-permeable fluorescent energy transfer probe (tracer)[23].
NanoBRET assays were executed as described previously. Constructs for BRSK2 NanoBRET measurements were provided in kind by Promega. The N-terminal Nanoluciferase (NL)/BRSK2 fusion (NL-BRSK2) was encoded in pFN32K expression vector, including flexible Gly-Ser-Ser-Gly linkers between NL and BRSK2 (Promega). For cellular BRSK2 NanoBRET target engagement experiments, a 10 μg/mL solution of DNA in Opti-MEM without serum (Gibco) was prepared with 9 μg/mL of Carrier DNA (Promega) and 1 μg/mL of NL-BRSK2 to achieve a total volume of 1.05 mL. To this solution was then added 31.5 μL of FuGENE HD (Promega) to form a lipid:DNA complex, mixed by inversion 8 times, and incubated at room temperature for 20 min. The resulting transfection complex (1.082 mL) was next gently mixed with HEK293 cells (21 mL) suspended at a density of 2 × 10^5 cells/mL in DMEM containing 10% FBS.
After 24 h, media was removed via aspiration and 85 μL of room temperature Opti-MEM without phenol red (Gibco) was added to each well. […] Next, 5 μL (20 × working stock of NanoBRET Tracer K5 [20 μM] in Tracer Dilution Buffer (Promega N291B)) was added to each well with the exception of the “no tracer” control wells. Test compounds were prepared as concentrated stock solutions in 100% DMSO (Sigma) at a concentration of 10 mM. […] A volume of 10 μL of tenfold test compound stock solutions (final assay concentration of […]) was added to each well. For “no compound” and “no tracer” control wells, 10 μL of Opti-MEM plus DMSO (9 μL Opti-MEM plus 1 μL DMSO) was added to each well to achieve a final concentration of 1% DMSO.
After 2 h, plates were returned to room temperature over the course of 15 min. […] Next, 50 μL of the 3 × substrate/extracellular NL inhibitor stock was added to each well.
Test compounds were evaluated at 8 concentrations in competition with NanoBRET Tracer K5 in HEK293 cells transiently expressing the NL-BRSK2 fusion protein. Raw milliBRET (mBRET) values were obtained by dividing the acceptor emission values (600 nm) by the donor emission values (450 nm), and then multiplying by 1000. Averaged control values were used to represent complete inhibition (no tracer control: transfected cells in Opti-MEM + DMSO; tracer control: transfected cells in Opti-MEM + DMSO + Tracer K5 only), and were plotted alongside the raw mBRET values. The data with n = 3 biological replicates was first normalized and then fit using Sigmoidal, 4PL binding curve in Prism Software (version 8, GraphPad, La Jolla, CA, USA).

BRSK2 = biological target: T2, BRSK2 (Homo sapiens, UniProt Q8IWQ3); parameters: purchased Eurofins; conditions: 0.5 μM; cited from earlier work
T2 sequence (Q8IWQ3 1-736): T1 sequence (Q8IWQ3 1-736)

[2] = read-out: BRSK2 NanoBRET data IC50

Structure (SMILES)	IC50 [1, 2] [nM]	also measured
O=C1NC(=O)c2c1c1c3ccccc3[nH]c1c1[nH]c3ccccc3c21 [Arcyriaflavin A]	7680 ± 3500	
O=C1NC(=O)C(c2c[nH]c3ccccc23)=C1c1c[nH]c2ccccc12 [Bisindolylmaleimide IV, bisindolylmaleimide IV]		biochemical inhibition of BRSK2 (BRSK2): weak biochemical inhibition
O=C1NC(=O)c2c1c1c3ccccc3[nH]c1c1[nH]c3cc(Br)ccc3c21 [CDK4 inhibitor]	1330 ± 230	
Cn1c2ccccc2c2c3c(c4c5ccccc5n(CCC#N)c4c21)CNC3=O [Gö 6976]	914 ± 640	
COC(=O)C1(O)CC2OC1(C)n1c3ccccc3c3c4c(c5c6ccccc6n2c5c31)C(=O)NC4 (stereo not shown) [K-252a]		IC50 ([1]; BRSK2 NanoBRET data IC50 (nM)): 20.2 nM and < 100 nM
O=C1NCc2c1c1c3ccccc3[nH]c1c1[nH]c3ccccc3c21 [K-252c]		IC50 ([1]; BRSK2 NanoBRET data IC50 (nM)): 308 ± 250 nM
O=C1NC(=O)c2c1c1c3ccccc3n3c1c1c2c2ccccc2n1C1CCC3O1 [SB 218078]	883 ± 200	
